Tested on: S. sanguis
Experiment: Ammonia production by S. sanguis at pH 4.0
Assay type: cell-based
Conditions: mean of 6 trials; 5 millimolar amino acid, pH 4.0, 0.1% sucrose, 37° C., 30 minutes
Description: An overnight culture of S. sanguis was grown at 37° C. in trypticase soy broth (Becton Dickinson, Sparks, Md.). The culture was centrifuged at 5,000 rpm for 5 minutes at 1 milliliter at a time into preweighed tubes in order to accumulate approximately 5 milligrams of wet pellet weight. The pellet was then resuspended into 20 millimolar potassium phosphate buffer (JT Baker, Phillipsburg, N.J.), pH 4.0, to simulate a stressed environment for the bacterial cell where ammonia would be produced for survival. The final concentration was 5 milligram per milliliter. To this final concentration, a 5 millimolar final concentration of L-arginine, L-citrulline, or L-ornithine was added along with a 0.1% final concentration of sucrose (VWR, West Chester, Pa.). This mixture was then incubated at 37° C. in a shaking water bath for 30 minutes before ammonia production was determined.
In order to analyze for ammonia, an Ammonia Assay kit was used from Diagnostic Chemicals Limited (Oxford, Conn.). The intended use of this specific kit is for the in vitro quantification of ammonia in plasma, but the procedure was modified in order to determine and quantify the ammonia production in plaque and/or bacteria.

Question: How did the “Ammonia, Mean” value turn out when N=C(N)NCCC[C@H](N)C(=O)O [L-Arginine, L-arginine] was run?
Answer: 1.06 ppm

Question: How did the “Ammonia, Mean” value turn out when NC(=O)NCCC[C@H](N)C(=O)O [L-Citrulline, L-citrulline] was run?
Answer: 0.951 ppm

Reference: patent US11612553B2, “Oral care product and methods of use and manufacture thereof” (Colgate-Palmolive Company, priority 2008, dated 2023)
